Starred links: 1 amine or outer side, 2 acyl side, 3 side chain; linkers in the order of their positions; H or OH if unused. Positions of bridges follow the written chain, without caps; N, C: chain ends. Chains are numbered I, II in the order given. BMOE = O=C1CC([*:1])C(=O)N1CCN1C(=O)CC([*:2])C1=O
Experiments:
[1] = test system: Ramos cell line of Burkitt's lymphoma; assay: Growth of Ramos cells in culture; assay type: cell-based; conditions: read-out: EC50 growth inhibition in culture
[2] = test system: U87MG glioblastoma cells; assay type: cell-based; conditions: MTT
Procedure: FIG. 14A: Dose response curve of COG445 on proliferation of U87 (open circles) and MDA-MB-231 (filled circles) cells as measured by MTT reduction. FIG. 14B: Dose response curve of COG445 on proliferation of MDA-MB-231 cells as measured by cell count.
To determine whether ApoE peptide dimers were cytotoxic to other types of cancer, we evaluated the effect of three different ApoE BMOE-linked peptide dimers (COG449, COG492, COG493; see Table I) on the growth characteristics of U87MG glioblastoma cells. Various concentrations of COG449, COG492, COG493 or Sorafenib were used to treat U87MG glioblastoma cells and viable cells were quanititated using MTT. Sorafenib, which has previously been reported to be cytotoxic to glioblastoma cells (Yang et al. (2010) Mol Cancer Ther., Vol. 9(4):953-962), was used as a positive control.
Because COG445 inhibited Akt activation and downstream signaling, we examined the effects of COG445 on cellular proliferation. Adherent MB231 and U87 cells were grown for ˜24 hours in the presence of COG445 and cellular proliferation was measured by MTT reduction. […] Furthermore, COG445 inhibited MB231 cellular proliferation as determined by cell count (FIG. 14B). Approximately 6×10^4 cells were plated in growth media (RPMI+10% FBS) for 24-hours with increasing concentrations of COG445. […] However at concentrations ≧1 μM COG445, there appears to be a loss of cells. This is partially explained by decreased proliferation, although it is possible that the rate of cellular degradation was increased in the presence of COG445.

[3] = test system: breast cancer cell lines; assay: Cytotoxicity in breast cancer cell lines by cell counting; assay type: cell-based, human; conditions: serum-free media, 24 hrs
Procedure: FIG. 28. Cytotoxic effects of COG449 in breast cancer cells. Cell lines were grown in serum-free media and COG449 as indicated for 24 hrs. Cellular proliferation was measured by cell counting. Cell number is represented relative to control, untreated cells.

[4] = Mouse toxicity, maximum tolerated dose by intravenous injection; conditions: in vivo, maximum dose by intravenous injection without deaths after 24 hrs
[5] = test system: MDA-231 cells; assay: Combination treatment of MDA-231 cells (MTT); assay type: cell-based; conditions: sub-lethal doses, 48 hrs, greater than either compound alone
Procedure: FIG. 29. Combination treatment with COG449 and sorafenib or gefitinb on triple negative breast cancer (TNBC) cell line growth. MDA-231 cells were grown in the presence of COG449, sorafenib, or gefitinb at sub-lethal doses as indicated. After 48 hrs, live cells were quantified using the MTT assay. *** indicates p<0.001.
(§1) To begin assessment of the potential of combination therapies with COG449, we analyzed the effect of treating MDA-231 cells with sub-lethal doses of COG449 and the multi-kinase inhibitor Sorafenib or the EGFR inhibitor Gefitinib at concentrations below their ED50 doses. […] We also evaluated the effects of COG449 in vivo using xenograft experiments. To determine whether COG449 might be effective against TNBC tumors in xenografts, immune compromised NOD/SCID gamma-chain null (NSG) mice were injected with MDA-231 cells into their 4th mammary glands. Once tumors became palpable at around 10 days, tumors were treated by […] subcutaneous injection of COG449 at 10 mg/kg. At 28 days post-xenograft, daily intra-tumor injection of COG449 was initiated and continued until sacrifice (FIG. 30A). In order to use a more clinically relevant treatment paradigm, MDA-231 xenografted mice were treated 3-times a week with 1 mg/kg COG449 by intravenous injection (FIG. 30B).

[6] = test system: MDA-MB-231 xenografts; assay: MDA-MB-231 TNBC xenografts in NSG mice; assay type: in vivo; conditions: both xenograft studies
Procedure: FIGS. 30A-30B. Inhibition of triple negative breast cancer (TNBC) tumor growth in xenografts with COG449 treatment. FIG. 30A: 4×10^6 MDA-MB-231 cells were injected with Matrigel into the 4th mammary glands of immune compromised mice and treated daily by subcutaneous injection of 10 mg/kg COG449 starting at day 10. FIG. 30B: 4×10^6 MDA-MB-231 cells were injected with Matrigel into the 4th mammary glands of immune compromised mice and treated by intravenous tail vein injection 3× week at 1 mg/kg starting at day 27 post injection. Tumor volume was determined by caliper measurement.
as §1, with “In order to use a more clinically relevant treatment paradigm, MDA-231 xenografted mice were treated 3-times a week with 1 mg/kg COG449 by intravenous injection (FIG. 30B).” left out

[7] = Cytotoxicity on normal B-cells from volunteers; assay type: cell-based, human; conditions: human, normal B-cells from volunteers
Procedure: Blood from CLL patients was collected and CD5+/CD19+ CLL cells were isolated using the RosetteSep™ Human B-Cell Enrichment Cocktail, according to the manufacturer's instructions, and treated with COG compounds. Compounds were applied to B-CLL cells (2.5×10^5 cells/well in a 96 well plate), after which the cells were treated for 72 hours.
Normal B-cells from volunteers and B-CLL cells from patients are isolated using the RosetteSep™ Human B Cell Enrichment Cocktail according to the manufacturer's instructions. This method depletes whole blood of T cells, monocytes, and NK cells using a proprietary antibody cocktail that cross-links unwanted cells in human whole blood to multiple red blood cells (RBCs) forming immunorosettes. This increases the density of the unwanted (rosetted) cells, such that they pellet along with the free RBCs when centrifuged over a buoyant density medium such as Ficoll-Paque®. This leaves the highly enriched B-cell or B-CLL cells at the interface between Ficoll and the plasma. The antibodies in the cocktail contain anti-CD14, anti-CD2 and anti-CD16 antibodies to remove T cells, monocytes, and NK cells, respectively. The purity of these B-cell and B-CLL preparations is then determined by flow cytometry. Preparations typically average less than 2% CD3+ T-cells and less than 0.5% CD14+ monocytes. In the case of B-CLL cell isolation, we routinely obtain preparations that contain less than 1.5% normal CD19+/CD5− B-cells using this method.

[8] = Tolerability of COG449 by intravenous infusion; assay type: in vivo
[9] = test system: CLL cells; conditions: 24 h
Procedure: We next sought to determine whether SET antagonism would destabilize Mcl-1. Destabilization of Mcl-1 by treatment with SET antagonists was evaluated by treating primary human CLL cells for 24 hr with the ApoE peptide dimer COG449 (a BMOE-linked dimer of COG112; see Example 2) and evaluating the level of Mcl-1 in the cells.

[10] = test system: PP2A; assay: PP2A activity in 32D:BCR/Abl chronic myelogenous leukemia cells (PP2A immunoprecipitation assay); assay type: cell-based; conditions: 1 μM, 30 minutes
Procedure: FIGS. 4A-4B. The BMOE-linked dimer peptide COG449 activates PP2A in CML cells. FIG. 4A: 32D-BCR/Abl chronic myelogenous leukemia cells were treated with COG449 (1 μM), COG445 (1 μM) (disulfide-linked COG112 dimer) or no treatment, and the PP2A activity was measured. FIG. 4B: 32D:BCR/Abl cell cultures were treated with no compound, 1 μM COG449, or 5 μM FTY720 for 30 minutes followed by lysis in an NP40 lysis buffer. PP2A was immunoprecipitated and assayed with the PP2A Immunoprecipitation assay kit (Upstate) according to the manufacturer's directions.
To further evaluate the effect of COG449, we measured the ability of the stable dimerized COG449 compound to activate PP2A in 32D:p210^BCR/Abl chronic myelogenous leukemia cells. […] 32D:p210^BCR/Abl chronic myelogenous leukemia cells were treated with no compound, 1 μM COG449, or 5 μM FTY720. We observed a robust increase of approximately 45% relative specific activity (phosphate release/minute/unit protein) of PP2A upon treatment with COG449 alone when compared to the untreated control, and about 20% activation compared with FTY720 (FIG. 4B).

Q: With “I: Ac-RQIKIWFQNRRMKWKKCLRVRLASHLRKLRKRLL-NH2 / II: Ac-RQIKIWFQNRRMKWKKCLRVRLASHLRKLRKRLL-NH2 (linker I:17-II:17 via BMOE) [COG449, COG112-C-BMOE-C-COG112]” as the substance, how does the EC50 [1] read?
A: 0.125 µM

Q: What about the “cytotoxicity to U87MG cells” value [2] of the same substance?
A: cytotoxic

Q: And the “cytotoxicity to breast cancer cell lines incl. MDA-231, MDA-468, HCC38” value [3]?
A: cytotoxic to all cell lines

Q: What about the MTD at 24 h [4] of the same substance?
A: 12 mg/kg

Q: And the “cytotoxic effect in combination with Gefitinib” value [5]?
A: robust cytotoxic effect

Q: What about the “cytotoxic effect in combination with Sorafenib” value [5] of the same substance?
A: robust cytotoxic effect

Q: And the “cytotoxic effects in mice” value [6]?
A: No cytotoxic effects

Q: And the EC50 at 72 h [7]?
A: > 10 µM

Q: And the first adverse events ([8]; 20 mg/kg)?
A: mild edema in the front paws and lethargy

Q: What about the adverse effects ([8]; intravenous infusion, 10-15 mg/kg) of the same substance?
A: without any observed adverse effects

Q: And the EC50 [9]?
A: ~0.11 µM

Q: What about the “increase of relative specific activity of PP2A compared to untreated control” value [10] of the same substance?
A: approximately 45%

Source: patent publication US9809640B2, “ApoE peptide dimers and uses thereof” (priority 2010, dated 2017)
